{
  "source": "paper PMC6669827",
  "about": "(Toxins, 2019)",
  "origin": "cited, not measured here",
  "test_system": "rat α9α10 nAChR",
  "conditions": "cited from earlier work",
  "data": [
    {"substance": "Vc1.1", "values": [
      {"measurement": "affinity for rat versus human α9/α10 (in words)", "value": "the affinity is higher for the rat subtypes"}
    ]}
  ]
}
